Drawing on US8163898B2, “4-sulfonylpiperidine derivatives” (MSD K. K., priority 2007, dated 2012), this text covers IC50 for eleven compounds.

In the first assay the target is T1, human LCE (Homo sapiens, UniProt Q9H5J4).
T1 sequence (Q9H5J4 1-265): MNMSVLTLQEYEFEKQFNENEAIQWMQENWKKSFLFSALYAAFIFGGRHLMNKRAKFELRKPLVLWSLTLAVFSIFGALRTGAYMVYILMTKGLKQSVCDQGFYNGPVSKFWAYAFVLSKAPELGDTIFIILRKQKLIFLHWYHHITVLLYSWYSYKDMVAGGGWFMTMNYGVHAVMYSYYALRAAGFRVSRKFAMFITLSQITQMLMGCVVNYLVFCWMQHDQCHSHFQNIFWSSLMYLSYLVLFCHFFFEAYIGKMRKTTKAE
The assay is described as follows: LCE enzyme activity inhibition test.
Settings: not given
The class given is biochemical. How it is done: Pharmacological Test Example 1 (LCE Enzyme Activity Inhibition Test)
A test compound was dissolved in dimethylsulfoxide (DMSO) to 10 mM, and further diluted with DMSO to prepare a 1000-fold concentrated solution, compared with the evaluated concentration. The LCE enzyme activity inhibition test was carried out according to a modification of the method of Moon (J. Biol. Chem., Vol. 276, pp. 45358-45366 (2001)) et al. Specifically, the diluted test compound was added to a 96-well assay plate (Corning, 96-well assay block) at 1.0 μL per well, and then 50 μL of phosphate buffer solution (100 mM potassium phosphate buffer solution (pH 6.5)), 25 μL of substrate solution (100 mM potassium phosphate buffer solution (pH 6.5)), 4.0 μM rotenone, 80 μM fatty acid free bovine serum albumin, 160 μM palmitoyl-CoA 80 μM malonyl-CoA, and 3.5 μM [^14C]-malonyl-CoA (1.92 GBq/mmol, manufactured by Amersham) were added to each well. Further, 25 μL of enzyme solution (100 mM potassium phosphate buffer solution (pH 6.5), 100 μg/mL human LCE) was added thereto. The plate was hermetically closed at the top with a seal, and then incubated with gentle agitation by shaking at 37° C. for 90 minutes. Subsequently, 100 μL of 5N HCl was added to each well, and the assay plate was agitated for 5 minutes at room temperature to stop the enzymatic reaction and also hydrolyze acyl-CoA. Subsequently, the enzymatic reaction solution of each well was adsorbed on each well of a 96-well GF/C filter plate (PerkinElmer, UniFilter 96 GF/C) that had been previously dipped in water. The wells were washed with water to remove unabsorbed malonyl-CoA, and the GF/C filter plate was dried at 50° C. for 60 minutes. Subsequently, 30 μL of scintillator (PerkinElmer, MicroScinti 0) was added to each well, and the plate was sealed at the top. Using a microplate scintillation counter (PerkinElmer, TopCount), the radiation activity of the fixed [^14C] was measured and obtained as the enzyme activity. The human LCE enzyme inhibitory activity of a test compound was calculated based on the radio activity in the well containing test-compound-free DMSO as a control. Compounds of the invention were examined according to this assay.
A word on the IC50: it is the midpoint of a concentration-inhibition curve. As to `O=C(Nc1ccc(C(F)(F)F)cc1)N1C2CCC1CC(S(=O)(=O)c1ccccn1)C2` (centres unmarked) [Example 9, 3-(pyridin-2-ylsulfonyl)-N-[(4-trifluoromethyl)phenyl]-8-azabicyclo[3.2.1]octane-8-carboxamide], the IC50 is 92 nM.

The same assay, now with this note: human LCE; [14C]-malonyl-CoA and palmitoyl-CoA substrate; 37° C. for 90 minutes; pH 6.5; read-out: IC50.
With `O=C(Nc1ccc(C(F)(F)F)cc1)N1C2CCC1CC(S(=O)(=O)c1ccccc1)C2` (centres unmarked) [Example 1, 3-phenylsulfonyl-N-[(4-trifluoromethyl)phenyl]-8-azabicyclo[3.2.1]octane-8-carboxamide], the IC50 came to 98 nM.
For `O=C(Nc1ccc(C(F)(F)F)cc1)N1C2CCC1CC(S(=O)(=O)c1ccc(F)cc1)C2` (centres unmarked) [Example 2, 3-(4-fluorophenyl)sulfonyl-N-[(4-trifluoromethyl)phenyl]-8-azabicyclo[3.2.1]octane-8-carboxamide], the 50% inhibitory concentration (IC50) was found to be 108 nM.
With `O=C(Nc1ccc(C(F)(F)F)cc1)N1C2CCC1CC(S(=O)(=O)c1ncccn1)C2` (centres unmarked) [Example 12, 3-(pyrimidin-2-ylsulfonyl)-N-[(4-trifluoromethyl)phenyl]-8-azabicyclo[3.2.1]octane-8-carboxamide], the 50% inhibitory concentration (IC50) amounted to 100 nM.
In the case of `CC(C)c1ccc(NC(=O)N2C3CCC2CC(S(=O)(=O)c2ccccc2)C3)cc1` (centres unmarked) [Example 16, N-(4-isopropylphenyl)-3-phenylsulfonyl-8-azabicyclo[3.2.1]octane-8-carboxamide], the 50% inhibitory concentration (IC50) came to 29 nM.
As for `O=C(Nc1ccc(C(F)(F)F)nc1)N1C2CCC1CC(S(=O)(=O)c1ccccc1)C2` (centres unmarked) [Example 32, 3-phenylsulfonyl-N-[6-(trifluoromethyl)pyridin-3-yl]-8-azabicyclo[3.2.1]octane-8-carboxamide], the IC50 was 127 nM.
Still for that read-out and setting: the figure for `O=C(Nc1cncc(C(F)(F)F)c1)N1C2CCC1CC(S(=O)(=O)c1ccccc1)C2` (centres unmarked) [Example 33, 3-phenylsulfonyl-N-[5-(trifluoromethyl)pyridin-3-yl]-8-azabicyclo[3.2.1]octane-8-carboxamide] is 103 nM.
On the same count and under the same terms, the result for `O=C(Nc1ccc(C(F)(F)F)cn1)N1C2CCC1CC(S(=O)(=O)c1ncccn1)C2` (centres unmarked) [Example 35] reads 194 nM.
As to `CC(C)c1ccc(NC(=O)N2C3CCC2CC(S(=O)(=O)c2ccccn2)C3)cc1` (centres unmarked) [Example 36, N-(4-isopropylphenyl)-3-(pyridin-2-ylsulfonyl)-8-azabicyclo[3.2.1]octane-8-carboxamide], the IC50 was found to be 32 nM.
As for `CC(C)c1ccc(NC(=O)N2C3CCC2CC(S(=O)(=O)c2ncccn2)C3)cc1` (centres unmarked) [Example 37, N-(4-isopropylphenyl)-3-(pyrimidin-2-ylsulfonyl)-8-azabicyclo[3.2.1]octane-8-carboxamide], the IC50 is 22 nM.
Same read-out and setting: the figure for `CC(C)(C)c1ccc(NC(=O)N2C3CCC2CC(S(=O)(=O)c2ccccn2)C3)cc1` (centres unmarked) [Example 40, N-(4-tert-butylphenyl)-3-(pyridin-2-ylsulfonyl)-8-azabicyclo[3.2.1]octane-8-carboxamide] is 125 nM.
